The record followed here is US20220202703A1, “IN SITU GEL-FORMING DELIVERY SYSTEMS, METHODS AND COMPOSITIONS” (Poly-Med, Inc., priority 2019, published 2022).

SMILES strings stand for the structures.

The nature of this data set: Erdafitinib batch release study in artificial urine at 37° C., HPLC. In kind it is physicochemical. Particulars: in solution / through in vitro study, HPLC PDA detection. From the text:
Scope: Load Erdafitinib into a limited number of proprietary delivery systems and perform a batch release study in artificial urine to determine release and stability of the active agent. Erdafitinib sourced from publicly available supplier having 99% purity. Obtained as fine yellow powder. Viscoprene® used as a hydrosetting gel carrier presenting as a high viscosity liquid. An encapsulant was used to provide a diffusion barrier around the Viscoprene/Erdafitinib matrix for some samples.
Formulation 1: Viscoprene and diluent release matrix. Formulation 2: Viscoprene release matrix. Formulation 3: Viscoprene in Encapsulant A. Formulation 4: Viscoprene in Encapsulant B. Step 1: Prepared release matrices (Erdafitinib in Viscoprene) with or without diluent (active matrix). Each study specimen included approximately 12 mg of drug. Step 2: Active matrix was encapsulated for Formulations 3 and 4. Step 3: Formulations were placed in artificial urine (USP method) at 37° C. Step 4: At time points, artificial urine was changed to fresh artificial urine. Step 5: Samples were analyzed for Erdafitinib content by HPLC.
An Isocratic HPLC method (non-stability indicating) able to identify Erdafitinib using a C18 column and water/acetonitrile mobile phase. Calibration curve generated with a R2 value of 0.9999. […] Sample preparation: Erdafitinib mixed readily into Viscoprene matrices. […]

Take `COc1cc(OC)cc(N(CCNC(C)C)c2ccc3ncc(-c4cnn(C)c4)nc3c2)c1` [Erdafitinib, 1,2-Ethanediamine, N1-(3,5-dimethoxyphenyl)-N2-(1-methylethyl)-N1-(3-(1-methyl-1H-pyrazol-4-yl)-6-quinoxalinyl)-]: the “Erdafitinib stability (in words)” value is “provisionally stable over a suitable timeframe”. Besides, the “Erdafitinib stability (in words)” value (listed as Erdatifinib) is reported as “likely stable through in vitro study for extended duration”.
